ChEMBL document CHEMBL1201862, “PubChem BioAssay data set” (2004)
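Following 48 hours of exposure in 96-well plates, responses at five concentrations were used to interpolate endpoints linearly. Abbreviation: GI50, concentration required for 50% inhibition of growth.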 Calls of active or inactive are those of the source. Rule as the data show it: active = GI50 up to about 1.1 µM and inactive = higher.

Key:
Test in all cases: growth of human tumour cells (NCI), 48 h
RPMI-8226 = tested on: RPMI-8226
SN12C = tested on: SN12C
HCT-116 = tested on: HCT-116
786-0 = tested on: 786-0
UO-31 = tested on: UO-31
SNB-75 = tested on: SNB-75
UACC-257 = tested on: UACC-257
OVCAR-4 = tested on: OVCAR-4
KM12 = tested on: KM12
HCC 2998 = tested on: HCC 2998
MCF7 = tested on: MCF7
SK-MEL-5 = tested on: SK-MEL-5
T47D = tested on: T47D
HL-60 = tested on: HL-60
IGROV-1 = tested on: IGROV-1
NCI/ADR-RES = tested on: NCI/ADR-RES
Hs-578T = tested on: Hs-578T
U-251 = tested on: U-251
COLO 205 = tested on: COLO 205
OVCAR-5 = tested on: OVCAR-5
DU-145 = tested on: DU-145
ACHN = tested on: ACHN
TK-10 = tested on: TK-10
SR = tested on: SR
A549 = tested on: A549
SF-295 = tested on: SF-295
HCT-15 = tested on: HCT-15
SK-MEL-2 = tested on: SK-MEL-2
SF-268 = tested on: SF-268
MOLT-4 = tested on: MOLT-4
PC-3 = tested on: PC-3
NCI-H23 = tested on: NCI-H23
NCI-H460 = tested on: NCI-H460
K562 = tested on: K562
M14 = tested on: M14
MDA-MB-435 = tested on: MDA-MB-435
HT-29 = tested on: HT-29
SW-620 = tested on: SW-620
LOX IMVI = tested on: LOX IMVI
NCI-H522 = tested on: NCI-H522
SK-MEL-28 = tested on: SK-MEL-28
OVCAR-3 = tested on: OVCAR-3
RXF 393 = tested on: RXF 393
SK-OV-3 = tested on: SK-OV-3
UACC-62 = tested on: UACC-62
Malme-3M = tested on: Malme-3M
SNB-19 = tested on: SNB-19
MDA-MB-231 = tested on: MDA-MB-231
NCI-H226 = tested on: NCI-H226
OVCAR-8 = tested on: OVCAR-8
CCRF-CEM = tested on: CCRF-CEM
SF-539 = tested on: SF-539
EKVX = tested on: EKVX
CAKI-1 = tested on: CAKI-1
A498 = tested on: A498
HOP-62 = tested on: HOP-62
MDA-N = tested on: MDA-N

Cc1cc(N(CCCCl)CCCCl)ccc1/C=N/c1cccc(Cl)c1
GI50 (RPMI-8226): < 0.01 µM (active)
GI50 (SN12C): 16.7 µM (inactive)
GI50 (HCT-116): 25 µM (inactive)
GI50 (786-0): 14.2 µM (inactive)
GI50 (UO-31): 10.5 µM (inactive)
GI50 (SNB-75): 12.1 µM (inactive)
GI50 (UACC-257): 0.428 µM (active)
GI50 (OVCAR-4): 12.4 µM (inactive)
GI50 (KM12): 13.5 µM (inactive)
GI50 (HCC 2998): < 0.01 µM (active)
GI50 (MCF7): 16.2 µM (inactive)
GI50 (SK-MEL-5): 14.4 µM (inactive)
GI50 (T47D): 0.45 µM (active)
GI50 (HL-60): 13 µM (inactive)
GI50 (IGROV-1): 13.2 µM (inactive)
GI50 (NCI/ADR-RES): 14.2 µM (inactive)
GI50 (Hs-578T): 14.3 µM (inactive)
GI50 (U-251): 15.7 µM (inactive)
GI50 (COLO 205): 11.5 µM (inactive)
GI50 (OVCAR-5): 1.2 µM (inactive)
GI50 (DU-145): 14.7 µM (inactive)
GI50 (ACHN): 13.1 µM (inactive)
GI50 (TK-10): 10.6 µM (inactive)
GI50 (SR): 11.8 µM (inactive)
GI50 (A549): 12.3 µM (inactive)
GI50 (SF-295): 17.6 µM (inactive)
GI50 (HCT-15): 13.6 µM
GI50 (SK-MEL-2): 16.4 µM (inactive)
GI50 (SF-268): 12.2 µM (inactive)
GI50 (MOLT-4): 4.41 µM (inactive)
GI50 (PC-3): 12 µM (inactive)
GI50 (NCI-H23): < 0.01 µM (active)
GI50 (NCI-H460): 0.977 µM (active)
GI50 (K562): 7.26 µM (inactive)
GI50 (M14): 18.5 µM (inactive)
GI50 (MDA-MB-435): 17.7 µM (inactive)
GI50 (HT-29): 14.6 µM (inactive)
GI50 (SW-620): 12.3 µM (inactive)
GI50 (LOX IMVI): 13.8 µM (inactive)
GI50 (NCI-H522): 17.5 µM (inactive)
GI50 (SK-MEL-28): 17.4 µM (inactive)
GI50 (OVCAR-3): 14.5 µM (inactive)
GI50 (RXF 393): 11.5 µM (inactive)
GI50 (SK-OV-3): 19.1 µM (inactive)
GI50 (UACC-62): 0.74 µM (active)
GI50 (Malme-3M): 8.79 µM (inactive)
GI50 (SNB-19): 15.3 µM (inactive)
GI50 (MDA-MB-231): 14 µM (inactive)
GI50 (NCI-H226): < 0.01 µM (active)
GI50 (OVCAR-8): 11.9 µM (inactive)

CN(C)CCNC(=O)Cn1cnc2cccc([N+](=O)[O-])c2c1=O
GI50 (RPMI-8226): > 100 µM (inactive)
GI50 (SN12C): > 100 µM (inactive)
GI50 (CCRF-CEM): > 100 µM (inactive)
GI50 (SF-539): > 100 µM (inactive)
GI50 (HCT-116): > 100 µM (inactive)
GI50 (786-0): > 100 µM (inactive)
GI50 (UO-31): > 100 µM (inactive)
GI50 (UACC-257): > 100 µM (inactive)
GI50 (OVCAR-4): > 100 µM (inactive)
GI50 (KM12): > 100 µM (inactive)
GI50 (HCC 2998): > 100 µM (inactive)
GI50 (MCF7): > 100 µM (inactive)
GI50 (SK-MEL-5): > 100 µM (inactive)
GI50 (T47D): > 100 µM (inactive)
GI50 (HL-60): > 100 µM (inactive)
GI50 (IGROV-1): > 100 µM (inactive)
GI50 (NCI/ADR-RES): > 100 µM (inactive)
GI50 (Hs-578T): > 100 µM (inactive)
GI50 (U-251): > 100 µM (inactive)
GI50 (COLO 205): > 100 µM (inactive)
GI50 (OVCAR-5): > 100 µM (inactive)
GI50 (DU-145): > 100 µM (inactive)
GI50 (EKVX): > 100 µM (inactive)
GI50 (ACHN): > 100 µM (inactive)
GI50 (TK-10): > 100 µM (inactive)
GI50 (SR): > 100 µM (inactive)
GI50 (A549): > 100 µM (inactive)
GI50 (SF-295): > 100 µM (inactive)
GI50 (HCT-15): > 100 µM
GI50 (SK-MEL-2): > 100 µM (inactive)
GI50 (CAKI-1): > 100 µM (inactive)
GI50 (SF-268): > 100 µM (inactive)
GI50 (MOLT-4): > 100 µM (inactive)
GI50 (A498): > 100 µM (inactive)
GI50 (PC-3): > 100 µM (inactive)
GI50 (NCI-H23): > 100 µM (inactive)
GI50 (NCI-H460): > 100 µM (inactive)
GI50 (K562): > 100 µM (inactive)
GI50 (M14): > 100 µM (inactive)
GI50 (MDA-MB-435): > 100 µM (inactive)
GI50 (HOP-62): > 100 µM (inactive)
GI50 (HT-29): > 100 µM (inactive)
GI50 (SW-620): > 100 µM (inactive)
GI50 (LOX IMVI): > 100 µM (inactive)
GI50 (MDA-N): > 100 µM (inactive)
GI50 (NCI-H522): > 100 µM (inactive)
GI50 (SK-MEL-28): > 100 µM (inactive)
GI50 (OVCAR-3): > 100 µM (inactive)
GI50 (RXF 393): > 100 µM (inactive)
GI50 (SK-OV-3): > 100 µM (inactive)
GI50 (UACC-62): > 100 µM (inactive)
GI50 (Malme-3M): > 100 µM (inactive)
GI50 (SNB-19): > 100 µM (inactive)
GI50 (NCI-H226): > 100 µM (inactive)
